As a reminder, the melting point is the temperature of the solid-liquid transition.

With `CCc1ccc(C(O)COc2ccc(C=O)cc2)nc1` (stereo not shown) [Compound 9a, 4-[2-(5-Ethyl-pyridin-2-yl)-2-hydroxy-ethoxy]-benzaldehyde], the melting point turned out to be 83 °C.

Values taken from patent US7863300B2, “Process to prepare pioglitazone via several novel intermediates” (Cadila Healthcare Limited, priority 2002, dated 2011).
